From patent US20110039763A1, “TARGETED ANTIMICROBIAL MOIETIES” (C3 JIAN, INC., priority 2009, published 2011)

Key:
microorganisms [1] = experiment: Peptide activities: targeting/binding, antimicrobial, growth or phenotype altering (Tables 7, 8); assay type: cell-based; settings: peptides having multiple activities
Excerpt: In certain embodiments, peptides described herein can have multiple activities. Thus for example, a peptide can have both binding/targeting activity and antimicrobial activity. Such peptides can be used, e.g., in a chimeric construct, for any or all of these properties. Thus, for example, a peptide designated “B” in Table 8 can be used as a targeting peptide. If it is also designated G or M it can also be used for antimicrobial activity.
Table 8. Peptides Having Multiple Activities. B: Targeting/Binding Activity; M: Antimicrobial Activity; G: GROWTH or Phenotype Altering.

microorganisms [2] = experiment: Morphology, biofilm and growth disrupting peptides (Table 5); assay type: cell-based; design: key: A: Peptide aggregates; B: Less hyphal formation; Clumps; Diffuse clumps and small polyps; F: Diffuse growth; H: Thin; I: Growth inhibition; Microcolony formation; Rippled; Small polyps; Thick; W: Halo formation on top, microlonies on bottom
Excerpt: In certain embodiments peptides that induce alterations in phenotype or other biological activities can also be used as antimicrobial effector moieties.

Substance: MIHLTKQNTMEALHFIKQFYDMFFILNFNV [PF-040]
- Activities (microorganisms [1]): G B
- Organism, effect: B. subtilis (microorganisms [2]; B. subtilis): B. subtilis (D)
- Organism, effect: C. jeikeium (microorganisms [2]): C. jeikeium (D)
- Organism, effect: C. jejuni (microorganisms [2]): C. jejuni (D)
- Organism, effect: E. coli (microorganisms [2]): E. coli (C)
- Organism, effect: M. luteus (microorganisms [2]): M. luteus (D)
- Organism, effect: MRSA (microorganisms [2]): MRSA (D)
- Organism, effect: P. mirabilis (microorganisms [2]; P. mirabilis): P. mirabilis (C)
- Organism, effect: S. epidermidis (microorganisms [2]): S. epidermidis (D)
- Organism, effect: S. mutans (microorganisms [2]; S. mutans, class symbol): S. mutans (F)
- Organism, effect: S. pneumoniae (microorganisms [2]): S. pneumoniae (D)

Substance: PF-001: peptide having multiple activities (MNNWIIVAQLSVTVINEIIDIMKEKQKGGK; Peptide with targeting and/or antimicrobial activity)
- Activities (microorganisms [1]): G B
- Organism, effect: C. jeikeium (microorganisms [2]): C. jeikeium (D)
- Organism, effect: M. luteus (microorganisms [2]): M. luteus (C)
- Organism, effect: MRSA (microorganisms [2]): MRSA (R)
- Organism, effect: S. epidermidis (microorganisms [2]): S. epidermidis (C)

Substance: PF-004: peptide having multiple activities (ARLSKAIIIAVIVVYHLDVRGLF; Peptide with targeting and/or antimicrobial activity)
- Activities (microorganisms [1]): G B
- Organism, effect: C. jeikeium (microorganisms [2]): C. jeikeium (A)
- Organism, effect: M. luteus (microorganisms [2]): M. luteus (A)
- Organism, effect: MRSA (microorganisms [2]): MRSA (R)
- Organism, effect: S. epidermidis (microorganisms [2]): S. epidermidis (A)

Substance: PF-012: peptide having multiple activities (WRGPNTEAGGKSANNIVQVGGAPT; Peptide with targeting and/or antimicrobial activity)
- Activities (microorganisms [1]): G B
- Organism, effect: C. jeikeium (microorganisms [2]): C. jeikeium (A)
- Organism, effect: M. luteus (microorganisms [2]): M. luteus (C)
- Organism, effect: MRSA (microorganisms [2]): MRSA (R)
- Organism, effect: S. epidermidis (microorganisms [2]): S. epidermidis (S)

Substance: PF-022: peptide having multiple activities (MINELKNKNSGIMNNYVVTKESKL; Peptide with targeting and/or antimicrobial activity)
- Activities (microorganisms [1]): G B
- Organism, effect: C. jeikeium (microorganisms [2]): C. jeikeium (A)
- Organism, effect: M. luteus (microorganisms [2]): M. luteus (A)
- Organism, effect: MRSA (microorganisms [2]): MRSA (R)
- Organism, effect: S. epidermidis (microorganisms [2]): S. epidermidis (D)

Substance: PF-030: peptide having multiple activities (MTCHQAPTTTHQSNMA; Peptide with targeting and/or antimicrobial activity)
- Activities (microorganisms [1]): G B
- Organism, effect: C. jeikeium (microorganisms [2]): C. jeikeium (C)
- Organism, effect: M. luteus (microorganisms [2]): M. luteus (C)
- Organism, effect: MRSA (microorganisms [2]): MRSA (R)
- Organism, effect: S. epidermidis (microorganisms [2]): S. epidermidis (D)

Substance: PF-042: peptide having multiple activities (LLLSYFRYTGALLQSLF; Peptide with targeting and/or antimicrobial activity)
- Activities (microorganisms [1]): G B
- Organism, effect: C. jeikeium (microorganisms [2]): C. jeikeium (S)
- Organism, effect: M. luteus (microorganisms [2]): M. luteus (C)
- Organism, effect: MRSA (microorganisms [2]): MRSA (R)
- Organism, effect: S. epidermidis (microorganisms [2]): S. epidermidis (D)

Substance: PF-057: peptide having multiple activities (TMIVISIPRFEEYMKARHKKWM; Peptide with targeting and/or antimicrobial activity)
- Activities (microorganisms [1]): G B
- Organism, effect: C. albicans (microorganisms [2]; C. albicans): C. albicans (A)
- Organism, effect: C. jeikeium (microorganisms [2]): C. jeikeium (A)
- Organism, effect: C. jejuni (microorganisms [2]): C. jejuni (D)
- Organism, effect: E. coli (microorganisms [2]): E. coli (M)
- Organism, effect: E. faecalis (microorganisms [2]; E. faecalis): E. faecalis (A)
- Organism, effect: M. luteus (microorganisms [2]): M. luteus (C)
- Organism, effect: MRSA (microorganisms [2]): MRSA (M)
- Organism, effect: S. epidermidis (microorganisms [2]): S. epidermidis (D)
- Organism, effect: S. pneumoniae (microorganisms [2]): S. pneumoniae (R)
